Results from patent US20140273094A1, “METHODS OF ENHANCING PROTEIN QUALITY AND QUANTITY BY YEAST FED-BATCH FERMENTATION” (BRISTOL-MYERS SQUIBB COMPANY, priority 2013, published 2014).

Tested on: P. pastoris
Experiment: Effect of hydroxyurea on cell growth and antibody productivity in fed-batch fermentation, Run 01MAY11
Format: cell-based, Pichia pastoris
Method: The glucose and ethanol were measured by YSI 2700 (YSI Incorporated, Yellow Springs, Ohio), O2 and CO2 of the exhaust line were measured by Questor GP Process Mass Spectrometer (ABB Extrel, Pittsburgh, Pa.) and the RQ value was calculated using below Equation [1]. The wet cell weight (WCW) was measured by centrifuging 1 milliliter (mL) fermentation broth at 13,200 rpm for 10 minutes, weighing pellet, and calculated ratio of pellets weight (g) over volume (mL). The supernatant titer (g/L) was measured by the HPLC method and the whole broth (WB) titer was then calculated by below Equation [2].
WB_Titer=Supernatant_Titer*(1−WCW/1000)
The treatment cultures were operated the same way plus adding hydroxyurea 5 hours after feed start.

SMILES: NC(=O)NO [Hydroxyurea]
- average whole broth titer (90 hours run time, three hydroxyurea treatment lots): 75 normalized units
- WCW reached and maintained by hydroxyurea treatment lots (after peak cell density at 30-40 hours, control lots ~400 g/Kg): ~450 g/kg
